# Reference: patent publication US20250034216A1, “STEREOSELECTIVE COVALENT LIGANDS FOR ONCOGENIC AND IMMUNOLOGICAL PROTEINS” (The Scripps Research Institute, priority 2021, published 2025)
# How the values were obtained:
# Assay in all cases: IA-DTB cysteine engagement
# Type in all cases: binding
# Conditions in all cases: 22Rv1 cells, 20 μM probe, 1 h, relative to DMSO
# ANKRD46_C61 = target: T1, ANKRD46_C61 (Homo sapiens, UniProt Q86W74)
# T1 construct: endogenous in cells; host or cells: 22Rv1
# T1 sequence (Q86W74 1-228): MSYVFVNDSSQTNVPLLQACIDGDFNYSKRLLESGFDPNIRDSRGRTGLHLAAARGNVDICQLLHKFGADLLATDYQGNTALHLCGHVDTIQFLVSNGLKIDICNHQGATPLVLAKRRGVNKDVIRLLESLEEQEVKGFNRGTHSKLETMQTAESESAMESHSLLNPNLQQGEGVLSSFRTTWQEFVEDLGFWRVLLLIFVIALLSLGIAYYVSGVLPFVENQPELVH
# Procedure, shortened: (§1)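 Cells were treated in situ with electrophilic probes, then lysed, and the lysates (2 mg/mL protein) were labeled with IA-DTB for 1 h at ambient temperature. After reduction, alkylation and trypsin digestion, labeled peptides were streptavidin-enriched, TMT-labeled and fractionated. Engagement ratios are probe vs DMSO reporter intensities, averaged across replicates.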
# ABCB8_C454 = target: T2, ABCB8_C454 (Homo sapiens, UniProt Q9NUT2)
# T2 construct: endogenous in cells; host or cells: 22Rv1
# T2 sequence (Q9NUT2 26-735): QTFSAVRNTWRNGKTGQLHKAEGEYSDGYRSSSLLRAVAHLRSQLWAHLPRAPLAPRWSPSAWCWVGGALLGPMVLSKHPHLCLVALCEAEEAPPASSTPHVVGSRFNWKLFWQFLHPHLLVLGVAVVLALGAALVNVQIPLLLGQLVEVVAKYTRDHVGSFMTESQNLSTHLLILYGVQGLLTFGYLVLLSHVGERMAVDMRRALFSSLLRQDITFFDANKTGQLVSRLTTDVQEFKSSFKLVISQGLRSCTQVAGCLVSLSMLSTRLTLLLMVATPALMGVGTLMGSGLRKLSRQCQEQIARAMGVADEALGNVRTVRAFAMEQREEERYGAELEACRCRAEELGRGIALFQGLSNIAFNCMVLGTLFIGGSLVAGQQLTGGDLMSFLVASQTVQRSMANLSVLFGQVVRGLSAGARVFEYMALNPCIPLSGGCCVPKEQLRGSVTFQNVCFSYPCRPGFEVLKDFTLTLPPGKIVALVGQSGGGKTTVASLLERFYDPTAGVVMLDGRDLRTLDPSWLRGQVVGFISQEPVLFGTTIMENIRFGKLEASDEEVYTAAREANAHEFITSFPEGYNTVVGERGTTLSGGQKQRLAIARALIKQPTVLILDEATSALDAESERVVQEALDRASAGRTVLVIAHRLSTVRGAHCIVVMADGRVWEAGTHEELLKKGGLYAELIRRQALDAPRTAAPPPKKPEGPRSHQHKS
# Procedure, shortened: as §1
# RAB40B_C77 = target: T3, RAB40B_C77 (Homo sapiens, UniProt Q12829)
# T3 construct: endogenous in cells; host or cells: 22Rv1
# T3 sequence (Q12829 1-278): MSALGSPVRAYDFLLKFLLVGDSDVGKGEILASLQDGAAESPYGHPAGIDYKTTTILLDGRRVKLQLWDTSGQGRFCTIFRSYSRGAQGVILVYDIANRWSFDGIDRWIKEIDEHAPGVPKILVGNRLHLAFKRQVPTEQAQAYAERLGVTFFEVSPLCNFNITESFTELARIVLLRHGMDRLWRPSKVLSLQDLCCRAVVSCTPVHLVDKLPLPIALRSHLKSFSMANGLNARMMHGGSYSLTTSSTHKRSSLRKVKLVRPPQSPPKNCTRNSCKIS
# Procedure, shortened: as §1
% engagement ANKRD46_C61 (ANKRD46_C61),% engagement ABCB8_C454 (ABCB8_C454),% engagement RAB40B_C77 (RAB40B_C77),Structure (SMILES)
66.5%,67%,12.5%,"C=CC(=O)N1C[C@H](c2ccc(Br)cc2)[C@H]1C(=O)Nc1cccc2cccnc12 [MY-3B, (2S,3S)-1-acryloyl-3-(4-bromophenyl)-N-(quinolin-8-yl)azetidine-2-carboxamide]"
28.5%,14%,100%,"C=CC(=O)N1C[C@H](c2ccc(Br)cc2)[C@@H]1C(=O)Nc1cccc2cccnc12 [MY-1B, (2R,3S)-1-acryloyl-3-(4-bromophenyl)-N-(quinolin-8-yl)azetidine-2-carboxamide]"
5.5%,24%,−39%,"C=CC(=O)N1C[C@H](c2ccc(Br)cc2)[C@H]1C(=O)Nc1cccc2cccnc12 [MY-3A, (2S,3S)-1-acryloyl-3-(4-bromophenyl)-N-(quinolin-8-yl)azetidine-2-carboxamide]"
17.5%,−1.25%,100%,"C=CC(=O)N1C[C@@H](c2ccc(Br)cc2)[C@H]1C(=O)Nc1cccc2cccnc12 [MY-1A, (2S,3R)-1-acryloyl-3-(4-bromophenyl)-N-(quinolin-8-yl)azetidine-2-carboxamide]"
